# Measurements published in PubChem BioAssay (NCI).
#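 Five concentrations, 48 hours, 96-well plates. GI50: concentration for 50% inhibition of growth. TGI: total growth inhibition.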
# Experiments:
# Experiment in all cases: NCI anticancer screen, dose series, 48 h
# U251 CNS = system: U251 CNS
# NCI-H23 lung = system: NCI-H23 lung
# A549 NSCLC = system: A549 NSCLC
# UACC-62 melanoma = system: UACC-62 melanoma
# SF-539 CNS = system: SF-539 CNS
# SNB-19 CNS = system: SNB-19 CNS
# T-47D breast = system: T-47D breast
# DU-145 prostate = system: DU-145 prostate
# MDA-N = system: MDA-N
# BT-549 breast = system: BT-549 breast
SMILES,TGI (U251 CNS) [µM],TGI (NCI-H23 lung) [µM],TGI (A549 NSCLC) [µM],TGI (UACC-62 melanoma) [µM],TGI (SF-539 CNS) [µM],TGI (SNB-19 CNS) [µM],TGI (T-47D breast) [µM],TGI (DU-145 prostate) [µM],TGI (MDA-N) [µM],TGI (BT-549 breast) [µM],GI50 (SNB-19 CNS) [µM],GI50 (U251 CNS) [µM],GI50 (NCI-H23 lung) [µM],GI50 (T-47D breast) [µM],GI50 (A549 NSCLC) [µM],GI50 (UACC-62 melanoma) [µM],GI50 (DU-145 prostate) [µM],GI50 (BT-549 breast) [µM],GI50 (SF-539 CNS) [µM]
CCCC(=O)OCC(O)CO (stereo not drawn),> 5000,> 5000,> 5000,> 5000,> 5000,–,–,–,–,–,–,–,–,–,–,–,–,–,–
C[C@H](O)C(=O)SC[C@H](NC(=O)CC[C@@H](N)C(=O)O)C(=O)NCC(=O)O,> 100,> 100,–,> 100,–,–,–,–,–,–,–,–,–,–,–,–,–,–,–
Cc1ccc(S(=O)(=O)NCCSS(=O)(=O)c2ccc(C)cc2)cc1,53.8,> 100,63.5,–,–,> 100,53.9,> 100,56.8,–,–,–,–,–,–,–,–,–,–
Oc1ccc2ccccc2c1Cc1c(O)ccc2ccccc12,34.4,37.8,39.9,29.4,42.2,36.7,56.4,38.1,28.3,33.6,–,–,–,–,–,–,–,–,–
O=C(/N=C/c1c(O)c2ccccc2oc1=O)NC1CCCCC1,–,> 100,> 100,> 100,> 100,> 100,–,–,–,–,–,–,–,–,–,–,–,–,–
COc1c2ccoc2c(S(=O)(=O)Nc2ccc(Cl)cc2)c2oc(C)cc(=O)c12,> 100,> 100,> 100,> 100,> 93.9,> 100,–,–,–,–,–,–,–,–,–,–,–,–,–
Cc1cc(-c2nc3cc(F)ccc3s2)ccc1NC(=O)C(C)N (stereo not drawn),9.42,6.24,7.72,7.7,14.2,9.63,6.35,8.17,8.13,8.49,–,–,–,–,–,–,–,–,–
CN(C)CCC(C(=O)C(C)(C)C)c1ccccn1 (stereo not drawn),> 100,> 100,> 100,> 100,–,> 100,> 100,> 100,> 100,> 100,–,–,–,–,–,–,–,–,–
CC(O)=NC(Cc1ccc2ccccc2c1)C(O)=NC(Cc1ccc(Cl)cc1)C(O)=NC(Cc1c[nH]c2ccccc12)C(O)=NC(CO)C(O)=NC(Cc1ccc(O)cc1)C(O)=NC(CCCN=C(N)N)C(O)=NC(CC(C)C)C(O)=NC(CCCN=C(N)N)C(=O)N1CCCC1C(O)=NC(C)C(=N)O (stereo not drawn),61.4,> 100,> 100,> 100,99.7,> 100,–,> 100,> 100,> 100,–,–,–,–,–,–,–,–,–
CCCCOc1ccc(S(=O)(=O)/N=C(\NN)Nc2ccc(Cl)cc2)cc1,30.2,> 100,36.6,> 100,36.7,> 100,46.2,31.1,> 100,> 100,–,–,–,–,–,–,–,–,–
CO[C@]12C[C@H](CNC(=O)c3cc(Br)c(Br)[nH]3)O[C@H]1NC(=O)N2,> 100,> 100,> 100,> 100,> 100,> 100,> 100,> 100,–,> 100,–,–,–,–,–,–,–,–,–
CCOC(=O)[C@H]1C[C@]23CN(C(=O)OC(C)(C)C)CC[C@H]2CCC2(SCCCS2)[C@@H]3N1C,> 100,> 100,> 100,> 100,> 100,> 100,> 100,> 100,> 100,> 100,–,–,–,–,–,–,–,–,–
NC1=NS(=O)(=O)Nc2nc(-c3cccs3)[nH]c21,> 100,> 100,> 100,> 100,> 100,> 100,–,–,–,–,–,–,–,–,–,–,–,–,–
NCCc1ccc2c(c1)C(=O)c1c(O)ccc(O)c1C2=O,> 30.9,> 60.8,> 45.4,39.7,7.97,29.6,–,> 100,> 100,> 100,–,–,–,–,–,–,–,–,–
OC1(c2ccc3ccccc3c2)c2ccc3ccccc3c2C2=NCCN21 (stereo not drawn),> 100,> 100,> 100,> 100,> 100,> 100,> 100,> 100,> 100,> 100,–,–,–,–,–,–,–,–,–
O=C1N[C@@H]2c3c(Br)sc(Br)c3C(=O)[C@@H]2N1,7.03,17,30,15.4,8.88,26.2,21.5,17.2,5.04,53,–,–,–,–,–,–,–,–,–
COc1ccc2c(c1)CC[C@@H]1[C@@H]2CC[C@]2(C)[C@@H](O)/C(=C/c3ccncc3)C[C@@H]12,25.1,31.7,41.1,29.6,–,51.8,28.9,41,33.2,31.6,–,–,–,–,–,–,–,–,–

SMILES,TGI (U251 CNS) [µM],TGI (NCI-H23 lung) [µM],TGI (A549 NSCLC) [µM],TGI (UACC-62 melanoma) [µM],TGI (SF-539 CNS) [µM],TGI (SNB-19 CNS) [µM],TGI (T-47D breast) [µM],TGI (DU-145 prostate) [µM],TGI (MDA-N) [µM],TGI (BT-549 breast) [µM],GI50 (SNB-19 CNS) [µM],GI50 (U251 CNS) [µM],GI50 (NCI-H23 lung) [µM],GI50 (T-47D breast) [µM],GI50 (A549 NSCLC) [µM],GI50 (UACC-62 melanoma) [µM],GI50 (DU-145 prostate) [µM],GI50 (BT-549 breast) [µM],GI50 (SF-539 CNS) [µM]
COc1cc(NCc2ccc3n2-c2ccccc2OC3)cc(OC)c1OC,> 100,> 100,> 100,43.4,–,> 100,> 100,> 100,72.4,67.3,–,–,–,–,–,–,–,–,–
CC[N+](CC)(CC)/C(=N/S(=O)(=O)c1cc(C)c(Cl)cc1S)[N-]S(=O)(=O)c1ccc(Cl)cc1,> 100,> 100,–,–,> 100,–,> 100,> 100,> 100,–,–,–,–,–,–,–,–,–,–
C=CCC1=CC2(OC)C(=O)C(OC)(OC)C1C1C(OC)(OC)C(=O)C(OC)=CC12CC=C (stereo not drawn),> 100,> 100,> 100,> 100,> 100,> 100,> 100,> 100,> 100,> 100,–,–,–,–,–,–,–,–,–
CCOC(=O)c1c(N2CCOCC2)[nH]c(=O)c(C(c2ccc(Cl)c([N+](=O)[O-])c2)c2c(O)c(C(=O)OCC)c(N3CCOCC3)[nH]c2=O)c1O,41.9,98.8,> 100,> 100,59.7,79.3,48.8,55.8,70.1,75.1,–,–,–,–,–,–,–,–,–
NC(N)=N/N=C/c1ccc(O)c(C(=O)O)c1,> 100,> 100,> 100,> 100,> 100,> 100,> 100,> 100,> 100,> 100,–,–,–,–,–,–,–,–,–
CCOc1ccc2c(c1)NC(=O)C(C1OC(c3ccccc3)=CC1=O)S2 (stereo not drawn),49.2,94.2,46.8,35.1,45,> 100,36.3,> 100,77.4,65.9,–,–,–,–,–,–,–,–,–
CCCc1ccc(OCC(=O)N/N=C/c2c(-c3ccccc3)[nH]c3ccccc23)cc1,20.3,38.2,> 100,26.3,42.5,> 100,52.4,> 100,–,34,–,–,–,–,–,–,–,–,–
O=C(CCO)OCCCCCC/C=C\CCCCCC/C=C\CCCCCCCCOC(=O)CCO,30.3,31.8,29.6,32.9,> 100,32.9,35.9,30,33.2,33.1,–,–,–,–,–,–,–,–,–
C[C@]12CC[C@H](O)CC1=CC[C@@H]1[C@@H]2CC[C@]2(C)C(=O)CC[C@@H]12,> 100,> 100,> 100,> 100,> 100,> 100,> 100,> 100,> 100,> 100,–,–,–,–,–,–,–,–,–
Cc1cc(=O)[nH]c2c3c(ccc12)OC(C)(C)C=C3,> 47.4,> 100,> 100,> 100,> 23.8,> 67.3,> 100,> 100,4.29,> 100,–,–,–,–,–,–,–,–,–
CC(C)(C)c1cc(C(C)(C)C)c2sc(=S)oc2c1O,18.7,18.9,> 41.3,23.4,11.1,27.6,20.6,25.5,19.8,23.6,–,–,–,–,–,–,–,–,–
FC(F)(F)C1=NC(=NNc2nnc(-c3ccccc3)c(-c3ccccc3)n2)N=C(C(F)(F)F)C1,> 86.3,> 100,> 100,30,> 100,> 100,–,–,–,–,–,–,–,–,–,–,–,–,–
O=c1cc(-c2nc3ccccc3[nH]2)[nH]c2nc(-c3nc4ccccc4[nH]3)cc(-c3ccc(Cl)cc3)c12,40,> 100,87.2,33.2,31.8,> 100,83.5,> 100,59.6,> 100,–,–,–,–,–,–,–,–,–
COc1ccc(-n2cc(-c3ccc(OC)c(OC)c3)nc2SCc2ccccc2)cc1Cl,> 100,> 100,> 100,> 100,79.5,> 100,> 100,> 100,–,42.5,32.5,22.4,22.7,9.45,21.3,20.8,27.6,14.9,24.5
Cc1onc(-c2c(F)cccc2Cl)c1C(=O)N[C@@H]1C(=O)N2[C@@H]1SC(C)(C)[C@@H]2C(=O)O,> 100,> 100,> 100,> 100,> 100,> 100,> 100,> 100,> 100,> 100,–,–,–,–,–,–,–,–,–
O=C(Nc1ccc(F)cc1)c1cc2ccc(O)cc2oc1=Nc1ccccc1F,97.5,13.6,–,> 100,> 100,–,> 100,> 100,> 100,43.5,–,–,–,–,–,–,–,–,–
